Here are results for 17 compounds from patent US11154563B2, “Immunoproteasome inhibitors” (Principia Biopharma Inc., priority 2017, dated 2021).

The target in assay [1] is immunoproteasome LMP7/B5i subunit (Homo sapiens, UniProt P20618+P28062). Description: Caliper-based proteasome enzymatic activity assay, LMP7. It counts as biochemical. Particulars: human recombinant immunoproteasome 0.3 nM, FAM-peptide substrate 1 μM, 3 h at rt. An outline of the steps:
(§1)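 Recombinant human immunoproteasome or constitutive proteasome (0.3 nM) with 1 μM FAM-peptide in 20 mM Hepes pH 7.4, 0.015% SDS, 0.01% BSA; LMP7/β5c ran 3 h at rt and were stopped with 5 uM carfilzomib, LMP2 ran 2 h and was stopped with 6.7 uM ixazomib. Cleaved product quantified by microfluidic separation; IC50 from percent inhibition.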

The target of assay [2] is constitutive proteasome β5c unit (Homo sapiens, UniProt P20618+P28074). Description: Caliper-based proteasome enzymatic activity assay, β5c. It is filed as biochemical. Particulars: human recombinant constitutive proteasome 0.3 nM, FAM-peptide substrate 1 μM, 3 h at rt; read-out: β5c subunit IC50. An outline of the steps: as §1
For assay [3], the target named is immunoproteasome LPM2/β1i subunit (Homo sapiens, UniProt P28065+P40306). In words: Caliper-based proteasome enzymatic activity assay, LMP2. It is filed as biochemical. Particulars: human recombinant immunoproteasome 0.3 nM, FAM-peptide substrate 1 μM, 2 h at rt. How it is done:
A Caliper-based proteasome assay (Caliper Life Sciences, Hopkinton, Mass.) was used to measure inhibition of the immunoproteasome LMP7/B5i subunit, the immunoproteasome LPM2/β1i subunit, and the constitutive proteasome β5c unit for a compound of Formula (I). For LMP7 and β5c, serial dilutions of test compounds were incubated with either human recombinant immunoprotcasome or constitutive proteasome (0.3 nM enzyme) and a carboxyfluorescein (FAM)-labeled peptide substrate FAM-TYETFKSIMKKSPF-NH2 (1 μM) at it for 3 h. The reaction was then terminated with a buffer containing the known proteasome inhibitor carfilzomib at a concentration of 5 uM. For LMP2, serial dilutions of test compounds were incubated with human recombinant immunoproteasome proteasome (0.3 nM enzyme) and a carboxyfluorescein (FAM)-labeled peptide substrate FAM-[…]-NH2 (1 μM) at rt for 2 h. The reaction was then terminated with a buffer containing the known proteasome inhibitor ixazomib at a concentration of 6.7 uM. The reaction buffer was 20 mM Hepes pH 7.4, 0.01% bovine serum albumin, 0.015% SDS, 0.5 mM EDTA, 1%0/DMSO. The peptide cleavage reaction product was quantified on a Caliper LabChip 3000. Percent inhibition was calculated for each compound dilution and the concentration that produced 50% inhibition was calculated. This value is presented as the IC50.

Assay [4] deals with T1, PBMC/LMP7 (Homo sapiens, UniProt P28062).
T1 construct: endogenous in cells; host or cells: primary human PBMC
In words: Inhibition of proteasome activity in cells (Proteasome-Glo), PBMC. It counts as cell-based. As to conditions: primary human PBMC, 2 h incubation, Suc-LLVY-aminoluciferin substrate. The procedure: The cell-based effects of a compound described herein on the immunoproteasome are determined by measuring inhibition of proteasome activity in cells using the Proteasome-Glo™ Cell-Based Reagent (Promega, Madison Wis.). The Proteasome-Glo™ assay contains a specific luminogenic proteasome substrate in a buffer optimized for cell permeabilization, proteasome activity, and luciferase activity. For the chymotrypsin-like activity (LMP7 and […]), the peptide substrate is Suc-LLVY-aminoluciferin (Succinyl-leucine-leucine-valine-tyrosine-aminoluciferin). Cleavage of the substrate by proteasome results in luminescent signal which is proportional to the proteasome activity. The cell line THP-1 (a monocytic leukemia cell line enriched in immunoproteasome), the cell line HT-29 (a colorectal adenocarcinoma cell line enriched in constitutive proteasome), and primary human peripheral blood mononuclear cells (PBMC) are used to assess proteasome activity. Cells are seeded in a 96-well plate at 10,000 cells per well in RPMI 1640 high glucose medium with 10% fetal bovine serum (FBS). Compound dilutions are added to cells starting at a concentration of 5 uM and decreasing in tripling dilutions. The final DMSO concentration is 1%. The concentration range is adjusted as needed for compounds of different potencies. The cells treated with compounds are incubated for 2 h at 37° C. in 5% CO2. At the end of the 2 h incubation period, cells are transferred to white 384 well assay plates. 20 uL of Proteasome-Glo™ Reagent is added to each well and incubated for 10 min at rt. The plate is read in the Analyst HT instrument (Molecular Devices, Sunnyvale, Calif.) using luminescence mode. The percent inhibition of activity is plotted as a function of log compound concentration. The IC50 is then calculated for each compound using Prism software from GraphPad Software Inc. (San Diego, Calif.).

Structures are written as SMILES.

Consider `CC(C)(C)C=C(C#N)C(=O)N1CCCC[C@@H]1COC(=O)N[C@@H](Cc1ccccc1)B(O)O` [Example 15, ((R)-1-(((((R)-1-(2-cyano-4,4-dimethylpent-2-enoyl)piperidin-2-yl)methoxy)carbonyl)amino)-2-phenylethyl)boronic acid], for which the IC50 in assay [1] is 5.5 nM; in assay [2], 4190 nM; in assay [3], over 5000 nM; in assay [4], 3.3 nM.
The matching figures for `CC(C)C=C(C#N)C(=O)N1CCCCC1CCC(=O)N[C@@H](Cc1ccccc1)B(O)O` (single isomer, unassigned) [Example 6]: 57 nM, over 5000 nM, 964 nM and 140 nM.
In the case of `CC(C)C=C(C#N)C(=O)N1CCC[C@@H]1COCCC(=O)N[C@@H](Cc1ccccc1)B(O)O` [Example 1, ((R)-1-(3-(((R)-1-(2-cyano-4-methylpent-2-enoyl)pyrrolidin-2-yl)methoxy)propanamido)-2-phenylethyl)boronic acid], the half-inhibitory concentration (IC50) turned out to be 79 nM in assay [1], 1460 nM in assay [2] and 190 nM in assay [4].
For `CC(C)C=C(C#N)C(=O)N1CCCC1CCC(=O)N[C@@H](Cc1ccccc1)B(O)O` (single isomer, unassigned) [Example 4], the half-inhibitory concentration (IC50) in assay [1] is 4 nM; in assay [2], 637 nM; in assay [3], 2440 nM; in assay [4], 39 nM.
For `CC(C)C=C(C#N)C(=O)N1CCCCC1CCC(=O)N[C@@H](Cc1ccccc1)B(O)O` (single isomer, unassigned) [Example 5], the half-maximal inhibitory concentration (IC50) in assay [1] turned out to be 7.6 nM; in assay [2], 1040 nM; in assay [3], 448 nM; in assay [4], 23 nM.
Consider `CC(C)C=C(C#N)C(=O)N1CCCC[C@@H]1COC(=O)N[C@@H](Cc1ccccc1)B(O)O` [Example 2, ((R)-1-(((((R)-1-(2-cyano-4-methylpent-2-enoyl)piperidin-2-yl)methoxy)carbonyl)amino)-2-phenylethyl)boronic acid], for which the half-maximal inhibitory concentration (IC50) in assay [1] is 55 nM; in assay [2], over 5000 nM; in assay [3] it was over 5000 nM; in assay [4] it was 420 nM.
Consider `CC(C)C=C(C#N)C(=O)N1CCC[C@@H]1COC(=O)N[C@@H](Cc1ccccc1)B(O)O` [Example 7, ((R)-1-(((((R)-1-(2-cyano-4-methylpent-2-enoyl)pyrrolidin-2-yl)methoxy)carbonyl)amino)-2-phenylethyl)boronic acid], for which the half-maximal inhibitory concentration (IC50) is 2.6 nM in assay [1], over 5000 nM in assay [2], over 5000 nM in assay [3] and 9.4 nM in assay [4].
Consider `CC(C)C=C(C#N)C(=O)N1CCCC1CCC(=O)N[C@@H](Cc1ccccc1)B(O)O` (single isomer, unassigned) [Example 3], for which the concentration for half-maximal inhibition (IC50) in assay [1] is 60 nM; in assay [2] it was over 5000 nM; in assay [3], 3430 nM; in assay [4] it was 130 nM.
Regarding `CC1(C=C(C#N)C(=O)N2CCCC[C@@H]2COC(=O)N[C@@H](Cc2coc3ccccc23)B(O)O)CCOCC1` [Example 59, ((R)-2-(benzofuran-3-yl)-1-(((((R)-1-(2-cyano-3-(4-methyltetrahydro-2H-pyran-4-yl)acryloyl)piperidin-2-yl)methoxy)carbonyl)amino)ethyl)boronic acid], the IC50 was 2.8 nM in assay [1], 372 nM in assay [2] and over 5000 nM in assay [3].
Regarding `CC(C)(C)C=C(C#N)C(=O)N1CCC[C@@H]1COC(=O)N[C@@H](Cc1ccccc1)B(O)O` [Example 10, ((R)-1-(((((R)-1-(2-cyano-4,4-dimethylpent-2-enoyl)pyrrolidin-2-yl)methoxy)carbonyl)amino)-2-phenylethyl)boronic acid], the half-inhibitory concentration (IC50) in assay [1] was 1.8 nM; in assay [2] it was 3410 nM; in assay [3], over 5000 nM; in assay [4], 7.1 nM.
As to `CC(C)(C=C(C#N)C(=O)N1CCC[C@@H]1COC(=O)N[C@@H](Cc1ccccc1)B(O)O)N1CCCC1` [Example 34, ((R)-1-(((((R)-1-(2-cyano-4-methyl-4-(pyrrolidin-1-yl)pent-2-enoyl)pyrrolidin-2-yl)methoxy)carbonyl)amino)-2-phenylethyl)boronic acid], the results for the IC50 in assay [1], in assay [2] and in assay [3] were 14 nM, 3370 nM and over 5000 nM, respectively.
The matching figures for `CC(C)(C=C(C#N)C(=O)N1CCC[C@@H]1COC(=O)N[C@@H](Cc1ccccc1)B(O)O)N1CCC(F)(F)CC1` [Example 21, ((R)-1-(((((R)-1-(2-cyano-4-(4,4-difluoropiperidin-1-yl)-4-methylpent-2-enoyl)pyrrolidin-2-yl)methoxy)carbonyl)amino)-2-phenylethyl)boronic acid]: 1.4 nM, 1940 nM and 4780 nM.
The matching figures for `Cc1ccc(C[C@H](NC(=O)OC[C@H]2COCCN2C(=O)C(C#N)=CC(C)(C)N2CCC(F)(F)C2)B(O)O)cc1` [Example 86, ((R)-1-(((((R)-4-(2-cyano-4-(3,3-difluorpyrrolidin-1-yl)-4-methylpent-2-enoyl)morpholin-3-yl)methoxy)carbonyl)amino)-2-(p-tolyl)ethyl)boronic acid]: 2.7 nM, 566 nM and over 5000 nM.
As for `C=CC(=O)N1CCC[C@@H]1COC(=O)N[C@@H](Cc1ccc(C)cc1)B(O)O` [Example 19, ((R)-1-(((((R)-1-acryloylpyrrolidin-2-yl)methoxy)carbonyl)amino)-2-(p-tolyl)ethyl)boronic acid], the half-maximal inhibitory concentration (IC50) was 60 nM in assay [1], 3260 nM in assay [2] and over 5000 nM in assay [3].
The matching figures for `CC(C)(C=C(C#N)C(=O)N1CCCC[C@@H]1COC(=O)N[C@@H](Cc1ccccc1)B(O)O)N1CCOCC1` [Example 29, ((R)-1-(((((R)-1-(2-cyano-4-methyl-4-morpholinopent-2-enoyl)piperidin-2-yl)methoxy)carbonyl)amino)-2-phenylethyl)boronic acid]: 2.9 nM, 3400 nM and over 5000 nM.
On the same counts, the results for `CC(C)C=C(C#N)C(=O)N1CCC[C@@H]1COC(=O)N[C@@H](Cc1coc2ccccc12)B(O)O` [Example 16, ((R)-2-(benzofuran-3-yl)-1-(((((R)-1-(2-cyano-4-methylpent-2-enoyl)pyrrolidin-2-yl)methoxy)carbonyl)amino)ethyl)boronic acid] are 2.5 nM, 444 nM and over 5000 nM.
As to `CC(C)(C)C=C(C#N)C(=O)N1C[C@H]2C[C@H]2[C@@H]1COC(=O)N[C@@H](Cc1ccccc1)B(O)O` [Example 37, ((R)-1-(((((1R,2R,5S)-3-(2-cyano-4,4-dimethylpent-2-enoyl)-3-azabicyclo[3.1.0]hexan-2-yl)methoxy)carbonyl)amino)-2-phenylethyl)boronic acid], the concentration for half-maximal inhibition (IC50) in assay [1] was 4 nM; in assay [2], 1960 nM; in assay [3], over 5000 nM.

As usually defined, the IC50 is the concentration at which inhibition is half-maximal.
